Assay results published in patent US4416884A, “Piperazinylbenzoheterocyclic compounds” (Otsuka Pharmaceutical Co., Ltd., priority 1978, dated 1983).
Converted amounts (≈) assume the structure as drawn. Structures can show the parent of a compound that is named as a salt. Where two headings read alike, the source gives them in different places.

Experiments:
Assay in all cases: antimicrobial activity, serial dilution method on agar plate
Format in all cases: cell-based
[1] = test system: Escherichia Coli NIHJ JC-2 (IFO 12734); conditions: for MIC: Escherichia coli, read-out: Minimum Inhibitory Concentration
Experimental: (§1) The antimicrobial activity of the following test compounds on various test organisms listed below was determined by the serial dilution method on agar plate (Heart Infusion agar produced by Difco Co.) (see CHEMOTHERAPY 22, pp. 1126-1128 (1974)), and the minimum inhibitory concentrations (mcg/ml) obtained are shown in Table 1 below.
(§2) A sample of each test organism was prepared so that the population of the organism was 1×10^8 cells/ml (O.D. 660 mμ=0.07 to 0.16) and 1×10^6 cells/ml (which was obtained by diluting the above 1×10^8 cells/ml preparation).

[2] = test system: Klebsiella pneumoniae
Experimental: as §1, §2

[3] = test system: Proteus rettgeri NIH 96; conditions: Providencia rettgeri
Experimental: as §1, §2

[4] = test system: Pseudomonas aeruginosa ATCC 10145
Experimental: as §1, §2

[5] = test system: Pseudomonas aeruginosa E-2
Experimental: as §1, §2

[6] = test system: Pseudomonas aeruginosa NCTC 10490
Experimental: as §1, §2

[7] = test system: Salmonella typhi 0-901 (NCTC 8393); conditions: Salmonella enterica
Experimental: as §1, §2

[8] = test system: Serattia marcescens IFO 12648
Experimental: as §1, §2

[9] = test system: Shigella Sonnei EW 33; conditions: read-out: Minimum Inhibitory Concentration
Experimental: as §1, §2

[10] = test system: Staphylococcus aureus FDA 209 P
Experimental: as §1, §2

[11] = test system: Streptococcus pyogenes IID S-23
Experimental: as §1, §2

[12] = inoculum 1 × 10^8 cells/ml, read-out: Minimum Inhibitory Concentration
[13] = NIH96, inoculum 1 × 10^8 cells/ml, read-out: Minimum Inhibitory Concentration
[14] = ATCC10145, inoculum 1 × 10^8 cells/ml, read-out: Minimum Inhibitory Concentration
[15] = E2, inoculum 1 × 10^8 cells/ml, read-out: Minimum Inhibitory Concentration
[16] = NCTC10490, inoculum 1 × 10^8 cells/ml, read-out: Minimum Inhibitory Concentration
[17] = read-out: Minimum Inhibitory Concentration, inoculum 1 × 10^8 cells/ml
[18] = FDA209, inoculum 1 × 10^8 cells/ml, read-out: Minimum Inhibitory Concentration
[19] = IIDS23, read-out: Minimum Inhibitory Concentration, inoculum 1 × 10^8 cells/ml
[20] = IIDS23, inoculum 1 × 10^8 cells/ml, read-out: Minimum Inhibitory Concentration
[21] = NIH96, read-out: Minimum Inhibitory Concentration, inoculum 1 × 10^8 cells/ml
[22] = ATCC10145, read-out: Minimum Inhibitory Concentration, inoculum 1 × 10^8 cells/ml
[23] = E2, read-out: Minimum Inhibitory Concentration, inoculum 1 × 10^8 cells/ml
[24] = NCTC10490, read-out: Minimum Inhibitory Concentration, inoculum 1 × 10^8 cells/ml
[25] = FDA209, read-out: Minimum Inhibitory Concentration, inoculum 1 × 10^8 cells/ml
[26] = read-out: Minimum Inhibitory Concentration, inoculum 1 × 10^6 cells/ml

SMILES	MIC ([1]; inoculum 1 × 10^8 cells/ml) [µg/mL]	MIC [2, 12] [µg/mL]	MIC [3, 13] [µg/mL]	MIC [4, 14] [µg/mL]	MIC [5, 15] [µg/mL]	MIC [6, 16] [µg/mL]	MIC [7, 17] [µg/mL]	MIC [8, 12] [µg/mL]	MIC ([9]; inoculum 1 × 10^8 cells/ml) [µg/mL]	MIC [10, 18] [µg/mL]	MIC [11, 19] [µg/mL]	MIC [1] [µg/mL]	other results
CC1CCc2c(N3CCN(CC(F)(F)F)CC3)c(Cl)cc3c(=O)c(C(=O)O)cn1c23 (centres unmarked) [c]	0.39 (≈ 0.879 µM)	0.39 (≈ 0.879 µM)	0.39 (≈ 0.879 µM)	3.13 (≈ 7.05 µM)	6.25 (≈ 14.1 µM)	0.78 (≈ 1.76 µM)	0.2 (≈ 0.451 µM)	0.39 (≈ 0.879 µM)	1.56 (≈ 3.51 µM)	0.1 (≈ 0.225 µM)	1.56 (≈ 3.51 µM)		
C=CCN1CCN(c2c(Cl)cc3c(=O)c(C(=O)O)cn4c3c2CCC4C)CC1 (centres unmarked) [h]	0.78 (≈ 1.94 µM)	0.78 (≈ 1.94 µM)	0.2 (≈ 0.498 µM)	12.5 (≈ 31.1 µM)	12.5 (≈ 31.1 µM)	12.5 (≈ 31.1 µM)	0.78 (≈ 1.94 µM)	0.78 (≈ 1.94 µM)	1.56 (≈ 3.88 µM)	0.78 (≈ 1.94 µM)			MIC [11, 20]: 3.13 µg/mL (≈ 7.79 µM)
C#CCN1CCN(c2c(Cl)cc3c(=O)c(C(=O)O)cn4c3c2CCC4C)CC1 (centres unmarked) [i]		0.78 (≈ 1.95 µM)	0.2 (≈ 0.5 µM)	12.5 (≈ 31.3 µM)	25 (≈ 62.5 µM)	12.5 (≈ 31.3 µM)	0.78 (≈ 1.95 µM)	0.78 (≈ 1.95 µM)	1.56 (≈ 3.9 µM)	0.39 (≈ 0.975 µM)	1.56 (≈ 3.9 µM)	1.56 (≈ 3.9 µM)	
O=C(O)c1cn2c3c(c(N4CCNCC4)ccc3c1=O)CC2 [Compound Q, 9-(1-Piperazinyl)-6-oxo-1,2-dihydro-6H--pyrrolo[3,2,1-ij]quinoline-5-carboxylic acid hydrochloride]									3.1			25	MIC [2, 17]: 12.5 µg/mL; MIC [3, 21]: 25 µg/mL; MIC [4, 22]: 50 µg/mL; MIC [5, 23]: 50 µg/mL; MIC [6, 24]: 25 µg/mL; MIC [7, 12]: 6.3 µg/mL; MIC [8, 17]: 6.3 µg/mL; MIC [10, 25]: 100 µg/mL
CC1CCc2c(N3CCNCC3)c(Cl)cc3c(=O)c(C(=O)O)cn1c23 (centres unmarked) [Compound T, 8-(1-Piperazinyl)-9-chloro-5-methyl-6,7-dihydro-1-oxo-1H,5H--benzo[ij]quinolizine-2-carboxylic acid hydrochloride hydrate]									0.2		6.3	0.4	Minimum Inhibitory Concentration ([1]; inoculum 1 × 10^6 cells/ml): 0.4 µg/mL; MIC [2, 26]: 0.4 µg/mL; MIC [2, 17]: 0.4 µg/mL; MIC ([3]; NIH96, read-out: Minimum Inhibitory Concentration, inoculum 1 × 10^6 cells/ml): 0.2 µg/mL; MIC [3, 21]: 0.2 µg/mL; MIC ([4]; ATCC10145, read-out: Minimum Inhibitory Concentration, inoculum 1 × 10^6 cells/ml): 1.6 µg/mL; MIC [4, 22]: 3.1 µg/mL; MIC ([5]; E2, read-out: Minimum Inhibitory Concentration, inoculum 1 × 10^6 cells/ml): 3.1 µg/mL; MIC [5, 23]: 3.1 µg/mL; MIC ([6]; NCTC10490, read-out: Minimum Inhibitory Concentration, inoculum 1 × 10^6 cells/ml): 1.6 µg/mL; MIC [6, 24]: 1.6 µg/mL; MIC ([7]; inoculum 1 × 10^6 cells/ml, read-out: Minimum Inhibitory Concentration): 0.1 µg/mL; MIC [7, 12]: 0.2 µg/mL; MIC [8, 26]: 1.6 µg/mL; MIC [8, 17]: 1.6 µg/mL; MIC ([9]; inoculum 1 × 10^6 cells/ml): 0.2 µg/mL; MIC ([10]; FDA209, read-out: Minimum Inhibitory Concentration, inoculum 1 × 10^6 cells/ml): 1.6 µg/mL; MIC [10, 25]: 1.6 µg/mL; MIC ([11]; IIDS23, read-out: Minimum Inhibitory Concentration, inoculum 1 × 10^6 cells/ml): 3.1 µg/mL
CC1CCc2c(N3CCN(CCO)CC3)c(F)cc3c(=O)c(C(=O)O)cn1c23 (centres unmarked) [f]	0.39 (≈ 1 µM)	0.78 (≈ 2 µM)	0.2 (≈ 0.514 µM)	6.25 (≈ 16 µM)	12.5 (≈ 32.1 µM)	12.5 (≈ 32.1 µM)	0.39 (≈ 1 µM)	0.39 (≈ 1 µM)	0.78 (≈ 2 µM)	0.78 (≈ 2 µM)			MIC [11, 20]: 3.13 µg/mL (≈ 8.04 µM)
O=CN1CCN(c2ccc3c(=O)c(C(=O)O)cn4c3c2CCC4)CC1 [Compound M, 8-(4-Formyl-1-piperazinyl)-6,7-dihydro-1-oxo-1H,5H--benzo[ij]quinolizine-2-carboxylic acid]	1.6 (≈ 4.69 µM)	3.1 (≈ 9.08 µM)	1.6 (≈ 4.69 µM)	25 (≈ 73.2 µM)	25 (≈ 73.2 µM)	12.5 (≈ 36.6 µM)	0.8 (≈ 2.34 µM)	3.1 (≈ 9.08 µM)	1.6 (≈ 4.69 µM)	3.1 (≈ 9.08 µM)			
